Results taken from US20110239327A1, “Nematicidal Effects of Cysteine Proteinases and Methods of Use Thereof to Treat Nematode Infestation” (priority 2007, published 2011).
Entries after “also recorded” stand apart in the source; their conditions may differ.

Assays:
Pratylenchus penetrans = test: In vitro live/dead count of Pratylenchus penetrans; format: cell-based
Experimental: (§1) Eggs of M. incognita race 1 from North Carolina State University, USA were collected from tomato-infected roots grown in a glasshouse at 23° C. in a 16:8 h light-dark regime. Eggs were extracted using 1% hypochlorite (NaClO) solution (Hussey and Barker, 1973) or by picking egg masses from tomato-infected roots. Juveniles (J2) were hatched from the eggs and egg masses in water. Heterodera glycines eggs were obtained from soil samples stored in Rothamsted-Research. Second stage juveniles (J2) were hatched from the eggs in water after 10 days. Pratylenchus penetrans were a gift from Dr. Deeren Anne-Marie from the Institute for Agricultural and Fisheries Research, Merelbeke, Belgium. The beneficial nematodes Steinernema feltiae and Heterorhabditis megidis were a gift from Dr. Paul Williams from Becker Underwood.
Control wells were set up which contained J2s and distilled water with 16 mM L-cysteine. Each enzyme concentration and the controls were set up in duplicate (i.e. n=2). […] The number of live and dead J2s per well was counted after each enzyme incubation. The same procedure was followed when setting up further experiments to compare the effects of these enzymes with Heterodera glycines J2, Pratylenchus penetrans, Steinernema feltiae and Heterorhabditis megidis.

Heterorhabditis megidis = test: In vitro effect on the beneficial nematode Heterorhabditis megidis; format: cell-based
Experimental: as §1
Control wells were set up which contained J2s and distilled water with 16 mM L-cysteine. Each enzyme concentration and the controls were set up in duplicate (i.e. n=2). The actual number of active J2s per well was counted with the aid of an Olympus inverted microscope, prior to the addition of the enzymes, and then the J2s were incubated in the dark at room temperature for 2 hs, 16 hs, 24 hs or 40 hr. The number of live and dead J2s per well was counted after each enzyme incubation. The same procedure was followed when setting up further experiments to compare the effects of these enzymes with Heterodera glycines J2, Pratylenchus penetrans, Steinernema feltiae and Heterorhabditis megidis.
The beneficial nematodes Hetorhabditis megidis and Steinernema feltiae were incubated with dilutions of actinidin, bromelain and pappain from papaya latex (see concentrations used in table 3). These nematodes reacted differentially to these cysteine proteinases (Tables 4 and 5). […] S. feltiae were dead at all concentrations of actinidin tested. […] After 16 hs of observation the enzyme solutions were diluted with water (to half of the initial concentrations) however, no change in nematode movement was observed after 24 hs.

M. incognita J2 = test: In vitro live/dead count of M. incognita J2 in solution without soil (Example 2); format: cell-based
Experimental: as §1, with “Underwood. […]” for “Underwood.”
Control wells were set up which contained J2s and distilled water with 16 mM L-cysteine. […] The actual number of active J2s per well was counted with the aid of an Olympus inverted microscope, prior to the addition of the enzymes, and then the J2s were incubated in the dark at room temperature for 2 hs, 16 hs, 24 hs or 40 hr. The number of live and dead J2s per well was counted after each enzyme incubation. […]

Meloidogyne spp. J2s = test: In vitro mobility of Meloidogyne spp. J2s exposed to plant cysteine proteinases; format: cell-based, M. incognita or M. javanica; conditions: 25 μM active enzyme
Experimental: Eggs of M. incognita race 1 from North Carolina State University, USA, and M. javanica from Portugal were collected from the roots of infected tomato plants grown in a glasshouse at 23° C. in a 16:8 h light-dark regime. Eggs were extracted using 1% hypochlorite (NaClO) solution (Hussey and Barker, 1973) or by picking egg masses from the infected roots. M. incognita and M. javanica were both used in the experiments and produced similar results. Juveniles (J2) were hatched from the eggs and egg masses in water. Globodera rostochiensis cysts were washed extensively in distilled water. Hatched J2s were obtained by incubating cysts in distilled water for 4 days followed by exposure to potato root diffusate (PRD).
Approximately 1000 J2s (second juvenile stage) of M. incognita or M. javanica were incubated per well of a 48-well plate with the following active enzyme concentrations (determined by E-64 titration) of papain dissolved in distilled water containing 16 mM L-cysteine (to activate the cysteine proteinase): 1.5 μM, 3 μM, 6.25 μM, 12.5 μM, 25 μM, 50 μM, 75 μM and 100 μM. […] The number of active J2s per well was counted prior to the addition of papain, and then the J2s were incubated in the dark at room temperature for 3 h. The number of mobile J2s per well was counted after 60, 120 and 180 mins. […]

With stem bromelain the “concentration of bromelain that killed the nematodes” value (Pratylenchus penetrans) was 560 µM, the recovery of mobility (Pratylenchus penetrans; after 48 hs) was “no recovery of mobility” and the “nematode motility or behaviour” value (Heterorhabditis megidis; enzyme concentration A (Table 3): actinidin 3.3 mM, bromelain 2.2 mM, papain 250 uM) was “All paralysed”. For the same substance, the “nematode motility or behaviour” value (Heterorhabditis megidis; enzyme concentration B: actinidin 1.7 mM, bromelain 1.1 mM, papain 125 uM) was “All paralysed”, the “nematode motility or behaviour” value (Heterorhabditis megidis; enzyme concentration C: actinidin 840 uM, bromelain 560 uM, papain 62.5 uM) was “All paralysed” and the “effect on H. megidis” value (Heterorhabditis megidis; higher concentrations) was “paralysed”. For the same substance, the “effect on H. megidis” value (Heterorhabditis megidis; lower concentrations) was “only affected slightly”, the recovery of movement (M. incognita J2; after 40 hs of observation, at the nematicidal concentration) was “not able to recover movement” and the “concentration of active bromelain with nematicidal effect” value (M. incognita J2; in solution without soil) was 1 mM. The “proportion of active Meloidogyne spp. J2s relative to control” value (Meloidogyne spp. J2s) was “significant reduction; also recorded: Reductions in the proportion of active worms were evident”.
